Usually IC50 stands for the concentration that inhibits the measured activity by half. Low values mean greater potency, high ones weaker potency.

SMILES strings stand for the structures.

T1 sequence (P52333 781-1124): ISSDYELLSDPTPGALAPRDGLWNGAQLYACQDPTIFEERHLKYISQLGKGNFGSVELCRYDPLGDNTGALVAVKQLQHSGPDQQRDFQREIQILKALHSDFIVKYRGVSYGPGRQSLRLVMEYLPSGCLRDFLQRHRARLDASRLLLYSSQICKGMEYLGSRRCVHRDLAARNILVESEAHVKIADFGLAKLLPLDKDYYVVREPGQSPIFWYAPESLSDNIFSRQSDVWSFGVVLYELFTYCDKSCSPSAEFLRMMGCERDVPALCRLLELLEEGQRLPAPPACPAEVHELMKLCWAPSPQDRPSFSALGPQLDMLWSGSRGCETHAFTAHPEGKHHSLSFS

The assay addresses T1, JAK3 kinase (Homo sapiens, UniProt P52333).
T1 construct: JAK3 kinase domain (amino acids 781 to 1124)
Nature of the assay: ELISA kinase assay, poly(Glu,Tyr) substrate, […] ATP. Format: biochemical.
`C[C@H]1COC2=C1C(=O)C(=O)c1c2ccc2c1CCCC2(C)C` [CRY, Cryptotanshinone]: the half-maximal inhibitory concentration (IC50) was around 25 µM.

Compound `COc1ccc(-c2oc3c(CC=C(C)C)c(O)cc(O)c3c(=O)c2O)cc1` [ICA, Icaritin] came in with an IC50 of around 20 µM.

For the compound `O=C1Nc2ccccc2/C1=C1/Nc2ccccc2C1=O` [IND, Indirubin], the concentration for half-maximal inhibition (IC50) was around 50 µM.
